Reference: the supplement of paper PMC10307832

compound: COc1nc(N)nc2c1ncn2[C@@H]1O[C@H](CO)[C@@H](O)[C@@H]1O [Nelarabine] + C[C@]1(O)C[C@@H](c2nc(-c3ccc4ccc(-c5ccccc5)nc4c3)c3c(N)nccn32)C1 [Linsitinib] (partner 1 µM); assay: relative viability (nuclei count vs DMSO), 5 days (fraction); higher = more cells survive; conditions: first compound 1 µM
Method in brief: (§1)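 Dosing by pin tool came one day after lung cancer cell lines were seeded in 1536-well plates, using either one drug or a fixed anchor-drug dose plus five library-drug doses (not always all listed) in √10 steps. After 5 days, nuclei were counted on 4× images. Relative viability is treated-well nuclei count divided by vehicle-well nuclei count, and values are medians of duplicate plates.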

Cell Line	relative viability
HCC-827	0.666
HOP-62	0.801
IA-LM	0.667
LC-2-ad	0.797
LCLC-97TM1	0.186
LCLC-103H	1.11
LK-2	0.673
LOU-NH91	0.947
LU99A	0.617
LXF-289	0.949
NCI-H23	0.622
NCI-H322M	0.924
NCI-H358	0.74
NCI-H1299	0.963
NCI-H1563	1.18
NCI-H1703	0.834

compound: COc1nc(N)nc2c1ncn2[C@@H]1O[C@H](CO)[C@@H](O)[C@@H]1O [Nelarabine] + CC(=O)Nc1cccc(-n2c(=O)n(C3CC3)c(=O)c3c(Nc4ccc(I)cc4F)n(C)c(=O)c(C)c32)c1 [Trametinib] (partner 0.02 µM); assay: as above; conditions: first compound 0.01 µM
Method in brief: as §1

Cell Line	relative viability
201T	0.781
A-427	0.835
BEN	1.17
CAL-12T	0.351
COR-L23	0.779
COR-L 105	0.351
ChaGo-K-1	1
EKVX	0.402
EPLC-272H	0.293
H3255	0.713
HARA	0.412
HCC-15	0.431
HCC-44	1.14
HCC-78	1.19
HCC-366	0.503
HCC-827	0.537

Cell Line	relative viability
HOP-62	0.47
LC-2-ad	1.09
LCLC-103H	0.72
LK-2	0.903
LOU-NH91	0.856
LU99A	0.548
LXF-289	0.714
NCI-H23	0.403
NCI-H322M	0.547
NCI-H358	0.124
NCI-H522	0.82
NCI-H1650	0.513
NCI-H2170	1.26
NCI-H2342	0.87
SW 900	0.642

same assay, conditions: first compound 0.03162 µM

Cell Line	relative viability
201T	0.775
A-427	0.772
BEN	0.91
CAL-12T	0.314
COR-L23	0.558
COR-L 105	0.398
ChaGo-K-1	0.748
EKVX	0.306
EPLC-272H	0.307
H3255	0.706
HARA	0.703
HCC-15	0.427
HCC-44	1.05
HCC-78	0.74
HCC-366	0.37
HCC-827	0.559

Cell Line	relative viability
HOP-62	0.516
LC-2-ad	1.01
LCLC-103H	0.68
LK-2	0.474
LOU-NH91	0.731
LU99A	0.552
LXF-289	0.74
NCI-H23	0.404
NCI-H322M	0.505
NCI-H358	0.14
NCI-H522	1.03
NCI-H1648	0.656
NCI-H1650	0.694
NCI-H2170	0.804
NCI-H2342	0.825
SW 900	0.778

same assay, conditions: first compound 0.1 µM

Cell Line	relative viability
201T	0.737
A-427	0.728
BEN	1.01
CAL-12T	0.404
COR-L23	0.516
COR-L 105	0.448
ChaGo-K-1	0.935
EKVX	0.587
EPLC-272H	0.317
H3255	0.619
HARA	0.676
HCC-15	0.307
HCC-44	1.01
HCC-366	0.279
HCC-827	0.521
HOP-62	0.369

Cell Line	relative viability
LC-2-ad	0.922
LCLC-97TM1	0.189
LCLC-103H	0.751
LK-2	0.795
LOU-NH91	0.769
LU99A	0.554
LXF-289	0.673
NCI-H23	0.343
NCI-H322M	0.383
NCI-H358	0.109
NCI-H522	0.662
NCI-H1650	0.462
NCI-H2170	0.997
NCI-H2342	0.847
SW 900	0.765

same assay, conditions: first compound 0.3162 µM

Cell Line	relative viability
201T	0.712
A-427	0.721
BEN	1.05
CAL-12T	0.352
COR-L23	0.612
COR-L 105	0.383
ChaGo-K-1	0.845
EKVX	0.282
EPLC-272H	0.274
H3255	0.651
HARA	0.754
HCC-15	0.42
HCC-44	1.03
HCC-78	0.853
HCC-366	0.466
HCC-827	0.454
HOP-62	0.36

Cell Line	relative viability
LC-2-ad	0.993
LCLC-97TM1	0.203
LCLC-103H	0.758
LK-2	0.956
LOU-NH91	0.804
LU99A	0.561
LXF-289	0.667
NCI-H23	0.378
NCI-H322M	0.402
NCI-H358	0.149
NCI-H522	0.726
NCI-H1648	0.451
NCI-H1650	0.818
NCI-H2170	0.944
NCI-H2342	0.701
SW 900	0.777

same assay, conditions: first compound 1 µM

Cell Line	relative viability
201T	0.73
A-427	0.773
BEN	1.31
CAL-12T	0.347
COR-L23	0.777
COR-L 105	0.482
ChaGo-K-1	0.899
EKVX	0.472
EPLC-272H	0.293
H3255	0.806
HARA	0.718
HCC-15	0.386
HCC-44	0.983
HCC-78	0.96
